# Measured values: article PMC4039038 (Journal of immunology (Baltimore, Md. : 1950), 2011)
# Columns and labels:
# [1] = system: ERAP1 alleles (Ref, K528R, Q730E); assay: LAMC hydrolysis, all three ERAP1 alleles; format: biochemical, human; conditions: no activating peptide; 25°C, up to 10 min
# [2] = system: ERAP1 K528R; assay: LAMC hydrolysis, ERAP1 K528R; format: biochemical, human; conditions: no activating peptide, 25°C, up to 10 min
# [3] = system: ERAP1 alleles (Ref, K528R, Q730E); assay: LAMC trimming in the presence of SIINFEKL, all three ERAP1 alleles; format: biochemical, human; conditions: 100 μM SIINFEKL
# [4] = system: ERAP1 K528R; assay: Activation of LAMC trimming by SIINFEKL, ERAP1 K528R; format: biochemical, human; conditions: 100 μM SIINFEKL, 25°C, up to 10 min
# [5] = system: ERAP1 Q730E; assay: Activation of LAMC trimming by SIINFEKL, ERAP1 Q730E; format: biochemical, human; conditions: 100 μM SIINFEKL, 25°C, up to 10 min
# [6] = system: ERAP1; conditions: 8mer peptide; ref [3]; cited from earlier work
# [7] = biological target: ERAP1 K528R (528R) (Homo sapiens, UniProt Q9NZ08, K528R); assay: Michaelis–Menten kinetics of antigenic peptide precursor trimming, ERAP1 K528R; format: biochemical
# [8] = biological target: ERAP1 Q730E (730E) (Homo sapiens, UniProt Q9NZ08, Q730E); assay: Michaelis–Menten kinetics of antigenic peptide precursor trimming, ERAP1 Q730E; format: biochemical; conditions: 730E allele; classical MM model; initial trimming rates, reactions limited to 10 min, 25°C
# [9] = system: ERAP1 Q730E (730E); assay: as above; format: biochemical, human; conditions: low substrate concentrations (kcat/KM); Q730E vs Ref and K528R
# [10] = biological target: ERAP1 Q730E (rs27044) (human, UniProt Q9NZ08-2 1-948, Q730E); assay: enzyme kinetics
# [11] = biological target: endoplasmic reticulum aminopeptidase 1 (ERAP1), ancestral reference sequence NP_057526 (human, UniProt Q9NZ08-2 1-948); assay: enzyme kinetics
# [12] = 528R allele, classical MM model, initial trimming rates, reactions limited to 10 min, 25°C
molecule,measurement,setting,value
"Cc1cc(=O)oc2cc(NC(=O)[C@@H](N)CC(C)C)ccc12 [LAMC, L-leucine-7-amido-4-methyl coumarin]",hydrolysis of LAMC by all three variants,[1],enzymatically active
same,fold less active of ERAP1 K528R in LAMC hydrolysis,[2],~ 4 fold
same,trimming activity of all three alleles toward LAMC in the presence of SIINFEKL,[3]; comparison between the three alleles,comparable trimming activity
SIINFEKL,magnitude of activation of LAMC trimming,[4],4 fold
same,magnitude of activation of LAMC trimming,[5],1.6 fold
same,ERAP1-mediated hydrolysis of LAMC in the presence of SIINFEKL,[3],enhanced
same,substrate quality for ERAP1,[6],poor substrate
LATFPDTLTY,Km,[7]; [12],49 ± 13 µM
same,kcat,[7]; [12],3.09 ± 0.203 s^–1
same,kcat/KM,[7]; [12],63 ± 17 × 10^3 s^–1 M^–1
same,processing rate by the K528R allele relative to other alleles,[7]; saturating conditions (kcat controls trimming rates),twice as quickly
same,Km,[8],45 ± 11 µM
same,kcat,[8],1.635 ± 0.10 s^–1
same,kcat/KM,[8],36 ± 9 × 10^3 s^–1 M^–1
same,"processing rate, fold more slowly by Q730E than by the other two alleles",[9],2 fold
"LKRVVINKDT [LKRVVINKDT, single-amino acid extended precursor of the HLA-B27 ligand KRVVINKDT]",Ki,[10],132 ± 53 µM
"YKRFEGLTQR [YKRFEGLTQR, single-amino acid extended precursor of the HLA-B27 ligand KRFEGLTQR]",Ki,[11],394 ± 133 µM
